From PubChem BioAssay (NCI)
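Here, GI50 denotes the concentration required for 50% inhibition of growth. TGI: total growth inhibition.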

Experiments:
Test in all cases: NCI-60 cell line screen, 384-well format
A498 renal = tested on: A498 renal
HCT-15 colon = tested on: HCT-15 colon
KM12 colon = tested on: KM12 colon
MOLT-4 leukemia = tested on: MOLT-4 leukemia
NCI/ADR-RES ovarian = tested on: NCI/ADR-RES ovarian
OVCAR-3 ovarian = tested on: OVCAR-3 ovarian
OVCAR-8 ovarian = tested on: OVCAR-8 ovarian
SF-295 CNS = tested on: SF-295 CNS
SF-539 CNS = tested on: SF-539 CNS
SK-MEL-28 melanoma = tested on: SK-MEL-28 melanoma
SK-MEL-5 melanoma = tested on: SK-MEL-5 melanoma
TK-10 renal = tested on: TK-10 renal
U251 glioblastoma = tested on: U251 glioblastoma

Question: What does the source list for `Cc1cc(C)c(CNC(=O)c2cc(-c3ccc(CN4CCOCC4)cc3)cc3c2cnn3C2CCCC2)c(=O)[nH]1`?
Answer: GI50 (A498 renal): 3.92 µM; TGI (A498 renal): 15.4 µM; GI50 (HCT-15 colon): 3.03 µM; TGI (HCT-15 colon): 11.6 µM; GI50 (KM12 colon): 8.88 µM; TGI (KM12 colon): 21.7 µM; GI50 (MOLT-4 leukemia): 3.02 µM; TGI (MOLT-4 leukemia): 7.94 µM; GI50 (NCI/ADR-RES ovarian): 11.6 µM; TGI (NCI/ADR-RES ovarian): 24 µM; GI50 (OVCAR-3 ovarian): 4.83 µM; TGI (OVCAR-3 ovarian): 17.5 µM; GI50 (OVCAR-8 ovarian): 11 µM; TGI (OVCAR-8 ovarian): 23.3 µM; GI50 (SF-295 CNS): 12 µM; TGI (SF-295 CNS): 24.6 µM; GI50 (SF-539 CNS): 6.86 µM; TGI (SF-539 CNS): 19.8 µM; GI50 (SK-MEL-28 melanoma): 9.62 µM; TGI (SK-MEL-28 melanoma): 21.9 µM; GI50 (SK-MEL-5 melanoma): 5.47 µM; TGI (SK-MEL-5 melanoma): 13.9 µM; GI50 (TK-10 renal): 0.968 µM; TGI (TK-10 renal): 21.9 µM; GI50 (U251 glioblastoma): 7.69 µM; TGI (U251 glioblastoma): 20.2 µM
